From patent US10538498B2, “1,3,4-oxadiazole sulfonamide derivative compounds as histone deacetylase 6 inhibitor, and the pharmaceutical composition comprising the same” (Chong Kun Dang Pharmaceutical Corp., priority 2015, dated 2020)

Biological target: T1, human recombinant HDAC6 (Homo sapiens, UniProt Q9UBN7)
T1 construct: purchased Calbiochem 382180
T1 sequence (Q9UBN7 1-1215): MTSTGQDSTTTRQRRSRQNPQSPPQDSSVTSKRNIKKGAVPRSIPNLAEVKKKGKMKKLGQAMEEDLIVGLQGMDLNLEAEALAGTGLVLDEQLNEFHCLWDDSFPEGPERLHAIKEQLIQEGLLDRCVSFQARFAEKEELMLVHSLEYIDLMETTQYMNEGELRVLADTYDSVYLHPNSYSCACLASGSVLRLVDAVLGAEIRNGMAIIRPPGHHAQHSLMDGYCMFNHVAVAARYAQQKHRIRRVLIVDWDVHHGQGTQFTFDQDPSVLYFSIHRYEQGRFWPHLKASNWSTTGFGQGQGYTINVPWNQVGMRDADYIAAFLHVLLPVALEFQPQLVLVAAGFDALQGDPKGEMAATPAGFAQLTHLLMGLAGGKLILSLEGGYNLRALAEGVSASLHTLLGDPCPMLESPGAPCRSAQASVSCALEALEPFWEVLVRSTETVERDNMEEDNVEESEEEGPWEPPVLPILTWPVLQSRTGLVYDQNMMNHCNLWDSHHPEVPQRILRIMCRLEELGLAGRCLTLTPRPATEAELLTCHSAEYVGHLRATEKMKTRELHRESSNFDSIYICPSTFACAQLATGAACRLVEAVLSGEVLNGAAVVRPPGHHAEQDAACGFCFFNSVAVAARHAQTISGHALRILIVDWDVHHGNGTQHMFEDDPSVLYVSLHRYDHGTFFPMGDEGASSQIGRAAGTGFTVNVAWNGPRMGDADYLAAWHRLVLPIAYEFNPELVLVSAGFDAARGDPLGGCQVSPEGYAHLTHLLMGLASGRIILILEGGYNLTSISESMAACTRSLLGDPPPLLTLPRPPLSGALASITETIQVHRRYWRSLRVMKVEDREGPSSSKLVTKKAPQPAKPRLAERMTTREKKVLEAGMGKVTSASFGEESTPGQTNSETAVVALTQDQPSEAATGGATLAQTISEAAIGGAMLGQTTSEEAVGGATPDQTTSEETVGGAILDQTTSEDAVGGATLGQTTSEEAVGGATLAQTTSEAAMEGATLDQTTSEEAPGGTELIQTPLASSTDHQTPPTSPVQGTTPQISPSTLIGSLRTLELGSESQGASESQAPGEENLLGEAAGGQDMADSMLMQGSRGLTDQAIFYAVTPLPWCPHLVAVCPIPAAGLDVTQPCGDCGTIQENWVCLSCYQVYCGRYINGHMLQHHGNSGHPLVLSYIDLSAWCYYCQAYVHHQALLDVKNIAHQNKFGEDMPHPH
Experiment: HDAC6 enzyme activity inhibition assay (HDAC Fluorimetric Drug Discovery Kit)
Assay type: biochemical
Conditions: for HDAC6 selectivity (fold): HDAC1 vs HDAC6; for IC50: same protocol as the HDAC1 enzyme activity test
Protocol: In order to examine the HDAC6 selectivity of the compounds of formula I of the present invention by HDAC1 and HDAC6 enzymatic activity inhibition assays, an experiment was performed using a conventional substance as a control.
HDAC enzyme activity was measured using a HDAC Fluorimetric Drug Discovery Kit (BML-AK511, 516, Enzo Life Science). For the HDAC1 enzyme activity test, human recombinant HDAC1 (BML-SE456) was used as an enzyme source, and Fluor de Lys®-“SIRT1 (BNL-KI177) was used as a substrate. A 5-fold dilution of the compound was seeded into a 96-well plate, and then 0.3 μg of the enzyme and 10 μM of the substrate were added to each well of the plate and allowed to react at 30° C. for 60 minutes. Then, Fluor de Lys®-Developer II (BML-KI176) was added thereto and allowed to react for 30 minutes, after which the fluorescence value (Ex 360, Em 460) was measured using a multi-plate reader (Flexstation 3, Molecular Device). The HDAC6 enzyme was tested using human recombinant HDAC6 (382180) (Calbiochem) according to the same protocol as the HDAC1 enzyme activity test method. Based on the resulting values, each IC50 value was calculated using GraphPad Prism4.0 program.

SMILES | HDAC6 selectivity (fold) | IC50 [nM]
O=S(=O)(CCCN1CCC(F)C1)N(Cc1ccc(-c2nnc(C(F)F)o2)cc1)c1ccccc1 (stereo in doubt) [Compound 11724, (R)—N-(4-(5-(difluoromethyl)-1,3,4-oxadiazol-2-yl)benzyl)-3-(3-fluoropyrrolidin-1-yl)-N-phenylpropane-1-sulfonamide] | 741 | 135
CS(=O)(=O)N(Cc1ccccn1)Cc1ccc(-c2nnc(C(F)(F)F)o2)cc1F [Compound 11044, N-(2-fluoro-4-(5-(trifluoromethyl)-1,3,4-oxadiazol-2-yl)benzyl)-N-(pyridin-2-ylmethyl)methanesulfonamide] | 302 | 331
CS(=O)(=O)N(Cc1ccc(-c2nnc(C(F)(F)F)o2)cc1)Cc1ccccn1 [Compound 11045, N-(pyridin-2-ylmethyl)-N-(4-(5-(trifluoromethyl)-1,3,4-oxadiazol-2-yl)benzyl)methanesulfonamide] | 633 | 158
COc1ccc(S(=O)(=O)NCc2ccc(-c3nnc(C(F)(F)F)o3)cc2)cc1 [Compound 11078, 4-methoxy-N-(4-(5-(trifluoromethyl)-1,3,4-oxadiazol-2-yl)benzyl)benzenesulfonamide] | 29 | 3470
CS(=O)(=O)N(Cc1ccc(-c2nnc(C(F)F)o2)cc1F)c1cccnc1 [Compound 11120, N-(4-(5-(difluoromethyl)-1,3,4-oxadiazol-2-yl)-2-fluorobenzyl)-N-(pyridin-3-yl)methanesulfonamide] | 2631 | 38
CS(=O)(=O)NCc1ccc(-c2nnc(C(F)(F)F)o2)cc1 [Compound 11121, N-(4-(5-(trifluoromethyl)-1,3,4-oxadiazol-2-yl)benzyl)methanesulfonamide] | 39 | 2540
CS(=O)(=O)N(Cc1ccccn1)Cc1ccc(-c2nnc(C(F)(F)F)o2)cn1 [Compound 11128, N-(pyridin-2-ylmethyl)-N-((5-(5-(trifluoromethyl)-1,3,4-oxadiazol-2-yl)pyridin-2-yl)methyl)methanesulfonamide] | 192 | 520
COc1cc(-c2nnc(C(F)(F)F)o2)ccc1CN(c1cccnc1)S(C)(=O)=O [Compound 11129, N-(2-methoxy-4-(5-(trifluoromethyl)-1,3,4-oxadiazol-2-yl)benzyl)-N-(pyridin-3-yl)methanesulfonamide] | 48 | 2100
CS(=O)(=O)N(Cc1ccc(-c2nnc(C(F)(F)F)o2)c(F)c1)c1cccnc1 [Compound 11133, N-(3-fluoro-4-(5-(trifluoromethyl)-1,3,4-oxadiazol-2-yl)benzyl)-N-(pyridin-3-yl)methanesulfonamide] | 290 | 345
O=S(=O)(c1cccnc1)N(Cc1ccc(-c2nnc(C(F)(F)F)o2)cc1)c1ccccc1 [Compound 11151, N-phenyl-N-(4-(5-(trifluoromethyl)-1,3,4-oxadiazol-2-yl)benzyl)pyridine-3-sulfonamide] | 741 | 135
O=S(=O)(c1cccnc1)N(Cc1ccc(-c2nnc(C(F)F)o2)cc1)c1ccccc1 [Compound 11152, N-(4-(5-(difluoromethyl)-1,3,4-oxadiazol-2-yl)benzyl)-N-phenylpyridine-3-sulfonamide] | 1724 | 58
CCS(=O)(=O)N(Cc1ccc(-c2nnc(C(F)(F)F)o2)cc1F)c1ccccc1 [Compound 11153, N-(2-fluoro-4-(5-(trifluoromethyl)-1,3,4-oxadiazol-2-yl)benzyl)-N-phenylethanesulfonamide] | 793 | 126
CCS(=O)(=O)N(Cc1ccc(-c2nnc(C(F)F)o2)cc1F)c1ccccc1 [Compound 11154, N-(4-(5-(difluoromethyl)-1,3,4-oxadiazol-2-yl)-2-fluorobenzyl)-N-phenylethanesulfonamide] | 5263 | 19
O=S(=O)(c1cccnc1)N(Cc1ccc(-c2nnc(C(F)(F)F)o2)cc1)c1cccc(F)c1 [Compound 11155, N-(3-fluorophenyl)-N-(4-(5-(trifluoromethyl)-1,3,4-oxadiazol-2-yl)benzyl)pyridine-3-sulfonamide] | 1250 | 80
O=S(=O)(c1cccnc1)N(Cc1ccc(-c2nnc(C(F)F)o2)cc1)c1cccc(F)c1 [Compound 11156, N-(4-(5-(difluoromethyl)-1,3,4-oxadiazol-2-yl)benzyl)-N-(3-fluorophenyl)pyridine-3-sulfonamide] | 3448 | 29
CS(=O)(=O)N(Cc1ccc(-c2nnc(C(F)F)o2)cc1)c1ccccc1 [Compound 11168, N-(4-(5-(difluoromethyl)-1,3,4-oxadiazol-2-yl)benzyl)-N-phenylmethanesulfonamide] | 4348 | 23
CS(=O)(=O)N(Cc1ccc(-c2nnc(C(F)F)o2)cc1F)c1ccccc1 [Compound 11170, N-(4-(5-(difluoromethyl)-1,3,4-oxadiazol-2-yl)-2-fluorobenzyl)-N-phenylmethanesulfonamide] | 7143 | 14
CS(=O)(=O)N(Cc1ccc(-c2nnc(C(F)F)o2)cn1)c1ccccc1 [Compound 11172, N-((5-(5-(difluoromethyl)-1,3,4-oxadiazol-2-yl)pyridin-2-yl)methyl)-N-phenylmethanesulfonamide] | 11111 | 9
CS(=O)(=O)N(Cc1ccc(-c2nnc(C(F)F)o2)nc1)c1ccccc1 [Compound 11174, N-((6-(5-(difluoromethyl)-1,3,4-oxadiazol-2-yl)pyridin-3-yl)methyl)-N-phenylmethanesulfonamide] | 76 | 1310
CS(=O)(=O)N(Cc1ccc(-c2nnc(C(F)(F)F)o2)cc1F)c1cccc(C(F)(F)F)c1 [Compound 11175, N-(2-fluoro-4-(5-(trifluoromethyl)-1,3,4-oxadiazol-2-yl)benzyl)-N-(3-(trifluoromethyl)phenyl)methanesulfonamide] | 559 | 179
CS(=O)(=O)N(Cc1ccc(-c2nnc(C(F)F)o2)cc1F)c1cccc(C(F)(F)F)c1 [Compound 11176, N-(4-(5-(difluoromethyl)-1,3,4-oxadiazol-2-yl)-2-fluorobenzyl)-N-(3-(trifluoromethyl)phenyl)methanesulfonamide] | 3571 | 28
Cc1cccc(N(Cc2ccc(-c3nnc(C(F)F)o3)cc2F)S(C)(=O)=O)c1 [Compound 11178, N-(4-(5-(difluoromethyl)-1,3,4-oxadiazol-2-yl)-2-fluorobenzyl)-N-(m-tolyl)methanesulfonamide] | 5000 | 20
COc1cccc(N(Cc2ccc(-c3nnc(C(F)F)o3)cc2F)S(C)(=O)=O)c1 [Compound 11180, N-(4-(5-(difluoromethyl)-1,3,4-oxadiazol-2-yl)-2-fluorobenzyl)-N-(3-methoxyphenyl)methanesulfonamide] | 1613 | 62
CS(=O)(=O)N(Cc1ccc(-c2nnc(C(F)(F)F)o2)cc1F)c1cccc(F)c1 [Compound 11181, N-(2-fluoro-4-(5-(trifluoromethyl)-1,3,4-oxadiazol-2-yl)benzyl)-N-(3-fluorophenyl)methanesulfonamide] | 3030 | 33
